Results from patent US12590091B2, “1H-pyrrolo[3,2-C]pyridine and 1H-pyrrolo[2,3-C]pyridine derivatives as TLR9 inhibitors for the treatment of fibrosis” (BRISTOL-MYERS SQUIBB COMPANY, priority 2020, dated 2026).

Tests used:
human TLR7 = biological target: T1, human TLR7 (Homo sapiens, UniProt Q9NYK1); assay: TLR7 inhibition reporter assay (HEK-Blue cells, SEAP reporter); format: cell-based; settings: HEK-Blue cells overexpressing human TLR7, stimulated with gardiquimod 7.5 μM, 22 hour incubation
T1 construct: host or cells: HEK-Blue cells
T1 sequence (Q9NYK1 27-1049): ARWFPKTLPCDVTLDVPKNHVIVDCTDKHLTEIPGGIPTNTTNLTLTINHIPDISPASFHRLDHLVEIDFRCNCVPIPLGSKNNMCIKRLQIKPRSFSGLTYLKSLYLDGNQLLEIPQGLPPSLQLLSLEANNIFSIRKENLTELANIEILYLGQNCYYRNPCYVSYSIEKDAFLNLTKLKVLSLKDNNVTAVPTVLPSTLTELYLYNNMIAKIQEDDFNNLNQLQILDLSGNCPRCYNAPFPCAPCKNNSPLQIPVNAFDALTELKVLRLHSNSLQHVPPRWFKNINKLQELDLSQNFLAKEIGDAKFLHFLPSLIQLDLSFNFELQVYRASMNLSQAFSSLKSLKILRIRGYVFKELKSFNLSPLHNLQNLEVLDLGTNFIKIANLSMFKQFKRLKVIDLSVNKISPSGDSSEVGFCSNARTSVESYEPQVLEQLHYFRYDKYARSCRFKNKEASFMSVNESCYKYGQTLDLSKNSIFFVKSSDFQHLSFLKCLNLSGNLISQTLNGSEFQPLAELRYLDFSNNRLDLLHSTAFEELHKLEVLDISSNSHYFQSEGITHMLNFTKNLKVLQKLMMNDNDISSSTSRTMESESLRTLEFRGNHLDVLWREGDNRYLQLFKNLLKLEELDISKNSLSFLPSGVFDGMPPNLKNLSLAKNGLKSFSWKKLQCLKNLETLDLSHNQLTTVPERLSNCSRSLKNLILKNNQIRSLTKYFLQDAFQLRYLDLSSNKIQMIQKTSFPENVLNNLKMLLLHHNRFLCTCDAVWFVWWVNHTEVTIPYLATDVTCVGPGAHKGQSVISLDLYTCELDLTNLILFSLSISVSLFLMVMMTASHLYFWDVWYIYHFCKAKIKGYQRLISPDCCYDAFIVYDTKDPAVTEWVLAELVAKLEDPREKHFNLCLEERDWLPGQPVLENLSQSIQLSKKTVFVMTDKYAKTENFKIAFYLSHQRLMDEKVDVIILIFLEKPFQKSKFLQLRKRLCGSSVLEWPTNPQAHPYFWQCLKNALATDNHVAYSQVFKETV
Method: (§1) TLR7/8/9 Inhibition Reporter Assays
(§2) HEK-Blue™-cells (Invivogen) overexpressing human TLR7, TLR8 or TLR9 receptors were used for screening inhibitors of these receptors using an inducible SEAP (secreted embryonic alkaline phosphatase) reporter gene under the control of the IFN-β minimal promoter fused to five NF-κB and AP-1-binding sites. Briefly, cells are seeded into Greiner 384 well plates (15000 cells per well for TLR7, 20,000 for TLR8 and 25,000 for TLR9) and then treated with test compounds in DMSO to yield a final dose response concentration range of 0.05 nM-50 μM. After a 30 minute compound pre-treatment at room temperature, the cells are then stimulated with a TLR7 ligand (gardiquimod at a final concentration of 7.5 μM), TLR8 ligand (R848 at a final concentration of 15.9 μM) or TLR9 ligand (ODN2006 at a final concentration of 5 nM) to activate NF-κB and AP-1 which induce the production of SEAP. After a 22 hour incubation at 37° C., 5% CO2, SEAP levels are determined with the addition of HEK-Blue™ Detection reagent (Invivogen), a cell culture medium that allows for detection of SEAP, according to manufacturer's specifications. The percent inhibition is determined as the % reduction in the HEK-Blue signal present in wells treated with agonist plus DMSO alone compared to wells treated with a known inhibitor.

human TLR9 = biological target: T2, human TLR9 (Homo sapiens, UniProt Q9NR96); assay: TLR9 inhibition reporter assay (HEK-Blue cells, SEAP reporter); format: cell-based; settings: HEK-Blue cells overexpressing human TLR9, stimulated with ODN2006 5 nM, 22 hour incubation
T2 construct: host or cells: HEK-Blue cells
T2 sequence (Q9NR96 26-1032): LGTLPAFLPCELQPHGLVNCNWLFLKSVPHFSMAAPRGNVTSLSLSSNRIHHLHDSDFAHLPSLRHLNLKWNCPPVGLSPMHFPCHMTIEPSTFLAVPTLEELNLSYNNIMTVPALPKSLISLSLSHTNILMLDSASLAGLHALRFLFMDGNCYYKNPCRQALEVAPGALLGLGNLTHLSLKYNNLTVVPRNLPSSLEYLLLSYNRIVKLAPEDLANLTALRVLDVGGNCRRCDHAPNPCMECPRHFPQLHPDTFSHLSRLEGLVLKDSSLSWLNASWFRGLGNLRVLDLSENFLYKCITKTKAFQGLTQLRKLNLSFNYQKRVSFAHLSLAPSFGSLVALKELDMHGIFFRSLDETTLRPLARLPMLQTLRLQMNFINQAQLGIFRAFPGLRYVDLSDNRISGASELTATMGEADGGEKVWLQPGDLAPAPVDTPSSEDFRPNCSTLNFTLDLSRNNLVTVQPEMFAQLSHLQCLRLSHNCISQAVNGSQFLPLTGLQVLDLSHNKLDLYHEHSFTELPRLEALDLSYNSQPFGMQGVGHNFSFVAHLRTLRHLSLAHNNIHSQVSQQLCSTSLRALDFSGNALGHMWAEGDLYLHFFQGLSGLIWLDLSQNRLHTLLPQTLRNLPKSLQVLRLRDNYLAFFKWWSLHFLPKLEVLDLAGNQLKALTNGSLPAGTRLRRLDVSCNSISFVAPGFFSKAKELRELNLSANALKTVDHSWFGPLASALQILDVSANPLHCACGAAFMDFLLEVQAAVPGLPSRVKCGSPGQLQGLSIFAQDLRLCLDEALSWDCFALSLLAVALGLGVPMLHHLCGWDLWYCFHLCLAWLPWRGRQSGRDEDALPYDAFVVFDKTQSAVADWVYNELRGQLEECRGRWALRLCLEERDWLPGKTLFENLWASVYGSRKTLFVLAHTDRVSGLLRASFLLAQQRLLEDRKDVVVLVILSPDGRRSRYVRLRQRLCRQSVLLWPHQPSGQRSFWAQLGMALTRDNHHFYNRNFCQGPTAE
Method: as §1
as §2, with “After a 30 minute compound pre-treatment at room temperature, the cells are then stimulated with a TLR7 ligand (gardiquimod at a final concentration of 7.5 μM), TLR8 ligand (R848 at a final concentration of 15.9 μM) or TLR9 ligand (ODN2006 at a final concentration of 5 nM) to activate NF-κB and AP-1 which induce the production of SEAP.” left out

| IC50 (human TLR7) [nM] | IC50 (human TLR9) [nM] | SMILES |
| --- | --- | --- |
| 750 | 68 | Cc1nc(-c2ccc(CN3C[C@H]4CC[C@@H]3CN4CC(C)(C)CO)cc2)cc2c1cc(-c1ccc(S(C)(=O)=O)cc1)n2C [Example 45, 3-((1R,4R)-5-(4-(1,4-Dimethyl-2-(4-(methylsulfonyl)phenyl)-1H-pyrrolo[3,2-c]pyridin-6-yl)benzyl)-2,5-diazabicyclo[2.2.2]octan-2-yl)-2,2-dimethylpropan-1-ol] |
| 7800 | 557 | Cc1nc(-c2ccc(CN3CCN(CCC(C)(C)O)CC3)cc2)cc2c1cc(-c1ccc(S(C)(=O)=O)cc1)n2C(F)F [Example 117, 4-[4-[[4-[1-(difluoromethyl)-4-methyl-2-(4-methylsulfonylphenyl)pyrrolo[3,2-c]pyridin-6-yl]phenyl]methyl]piperazin-1-yl]-2-methyl-butan-2-ol] |
